Data published in PubChem BioAssay (NCI).
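Values below derive from 48-hour exposures of cells grown in 96-well plates, with endpoints linearly interpolated between the two concentrations bracketing the appropriate inhibition level. At the GI50, growth is halved. TGI denotes the concentration required for complete inhibition of growth.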

What was measured:
Assay in all cases: NCI-60 cell line screen, 48 h; in the data active means GI50 below about 0.43 µM; inactive means the rest
SK-OV-3 ovarian = system: SK-OV-3 ovarian
HL-60(TB) leukemia = system: HL-60(TB) leukemia
A498 renal = system: A498 renal
MALME-3M melanoma = system: MALME-3M melanoma
HS 578T breast = system: HS 578T breast
KM12 colon = system: KM12 colon
PC-3 prostate = system: PC-3 prostate
HOP-62 NSCLC = system: HOP-62 NSCLC
DU-145 prostate = system: DU-145 prostate
SK-MEL-5 melanoma = system: SK-MEL-5 melanoma
ACHN renal = system: ACHN renal
SNB-75 CNS = system: SNB-75 CNS
HCT-15 colon = system: HCT-15 colon
EKVX NSCLC = system: EKVX NSCLC
TK-10 renal = system: TK-10 renal
RPMI-8226 leukemia = system: RPMI-8226 leukemia
COLO 205 colon = system: COLO 205 colon
OVCAR-4 ovarian = system: OVCAR-4 ovarian
SF-268 CNS = system: SF-268 CNS
MCF7 breast = system: MCF7 breast
786-0 renal = system: 786-0 renal
SN12C renal = system: SN12C renal
SK-MEL-2 melanoma = system: SK-MEL-2 melanoma
NCI/ADR-RES ovarian = system: NCI/ADR-RES ovarian
OVCAR-5 ovarian = system: OVCAR-5 ovarian
UO-31 renal = system: UO-31 renal
M14 melanoma = system: M14 melanoma
UACC-62 melanoma = system: UACC-62 melanoma
SF-539 CNS = system: SF-539 CNS
OVCAR-3 ovarian = system: OVCAR-3 ovarian
NCI-H460 lung = system: NCI-H460 lung
BT-549 breast = system: BT-549 breast
SW-620 colon = system: SW-620 colon
MDA-MB-231 breast = system: MDA-MB-231 breast
T-47D breast = system: T-47D breast
SK-MEL-28 melanoma = system: SK-MEL-28 melanoma
IGROV1 ovarian = system: IGROV1 ovarian
OVCAR-8 ovarian = system: OVCAR-8 ovarian
CAKI-1 renal = system: CAKI-1 renal
SR leukemia = system: SR leukemia
SF-295 CNS = system: SF-295 CNS
MDA-MB-435 = system: MDA-MB-435
CCRF-CEM leukemia = system: CCRF-CEM leukemia
NCI-H226 lung = system: NCI-H226 lung
SNB-19 CNS = system: SNB-19 CNS
K-562 leukemia = system: K-562 leukemia
HOP-92 NSCLC = system: HOP-92 NSCLC
HT29 colon = system: HT29 colon
UACC-257 melanoma = system: UACC-257 melanoma
HCT-116 colon = system: HCT-116 colon
HCC-2998 colon = system: HCC-2998 colon
A549 NSCLC = system: A549 NSCLC
RXF 393 renal = system: RXF 393 renal
U251 CNS = system: U251 CNS
NCI-H23 lung = system: NCI-H23 lung
MOLT-4 leukemia = system: MOLT-4 leukemia
NCI-H522 lung = system: NCI-H522 lung

COc1cc(/C=C/C(=O)c2cc(OC)c(OC)c(OC)c2)ccc1OCc1ccc(F)cc1
84.2 µM: TGI (HS 578T breast)
5.13 µM: TGI (SF-539 CNS)
52.3 µM: TGI (UACC-62 melanoma)
16.6 µM: TGI (OVCAR-8 ovarian)
inactive: GI50 (SK-OV-3 ovarian) 3.61 µM | GI50 (HL-60(TB) leukemia) 2.73 µM | GI50 (A498 renal) 48 µM | GI50 (MALME-3M melanoma) 6 µM | GI50 (HS 578T breast) 6.03 µM | GI50 (KM12 colon) 4.95 µM | GI50 (PC-3 prostate) 3.67 µM | GI50 (HOP-62 NSCLC) 3.64 µM | GI50 (DU-145 prostate) 3.72 µM | GI50 (SK-MEL-5 melanoma) 3.41 µM | GI50 (ACHN renal) 4.92 µM | GI50 (SNB-75 CNS) 2.06 µM | GI50 (HCT-15 colon) 2.66 µM | GI50 (EKVX NSCLC) 18.4 µM | GI50 (TK-10 renal) 16.6 µM | GI50 (RPMI-8226 leukemia) 1.68 µM | GI50 (COLO 205 colon) 5.27 µM | GI50 (OVCAR-4 ovarian) 3.62 µM | GI50 (SF-268 CNS) 4.8 µM | GI50 (MCF7 breast) 2.45 µM | GI50 (786-0 renal) 7.22 µM | GI50 (SN12C renal) 2.73 µM | GI50 (SK-MEL-2 melanoma) 8.57 µM | GI50 (NCI/ADR-RES ovarian) 4.2 µM | GI50 (OVCAR-5 ovarian) 3.9 µM | GI50 (UO-31 renal) 3.88 µM | GI50 (M14 melanoma) 5.74 µM | GI50 (UACC-62 melanoma) 3.15 µM | GI50 (SF-539 CNS) 2.12 µM | GI50 (OVCAR-3 ovarian) 3.84 µM | GI50 (NCI-H460 lung) 4.56 µM | GI50 (BT-549 breast) 3.36 µM | GI50 (SW-620 colon) 4.31 µM | GI50 (MDA-MB-231 breast) 2.96 µM | GI50 (T-47D breast) 3.22 µM | GI50 (SK-MEL-28 melanoma) 6.52 µM | GI50 (IGROV1 ovarian) 3.38 µM | GI50 (OVCAR-8 ovarian) 2.88 µM | GI50 (CAKI-1 renal) 4.35 µM | GI50 (SR leukemia) 1.73 µM | GI50 (SF-295 CNS) 3.65 µM | GI50 (MDA-MB-435) 3.6 µM | GI50 (CCRF-CEM leukemia) 3.13 µM | GI50 (NCI-H226 lung) 3.48 µM | GI50 (SNB-19 CNS) 4 µM | GI50 (K-562 leukemia) 2.94 µM | GI50 (HOP-92 NSCLC) 2.15 µM | GI50 (HT29 colon) 3.43 µM | GI50 (UACC-257 melanoma) 3.82 µM | GI50 (HCT-116 colon) 2.85 µM | GI50 (HCC-2998 colon) 2.94 µM | GI50 (A549 NSCLC) 3.11 µM | GI50 (RXF 393 renal) 3.4 µM | GI50 (U251 CNS) 3.74 µM | GI50 (NCI-H23 lung) 5.29 µM | GI50 (MOLT-4 leukemia) 3.14 µM | GI50 (NCI-H522 lung) 2.31 µM
24.6 µM: TGI (MDA-MB-231 breast)
8.99 µM: TGI (HOP-92 NSCLC)
15.5 µM: TGI (BT-549 breast) | TGI (NCI-H522 lung)
> 100 µM: TGI (HL-60(TB) leukemia) | TGI (A498 renal) | TGI (MALME-3M melanoma) | TGI (KM12 colon) | TGI (PC-3 prostate) | TGI (DU-145 prostate) | TGI (ACHN renal) | TGI (HCT-15 colon) | TGI (EKVX NSCLC) | TGI (TK-10 renal) | TGI (RPMI-8226 leukemia) | TGI (COLO 205 colon) | TGI (OVCAR-4 ovarian) | TGI (SF-268 CNS) | TGI (MCF7 breast) | TGI (786-0 renal) | TGI (NCI/ADR-RES ovarian) | TGI (OVCAR-5 ovarian) | TGI (UO-31 renal) | TGI (M14 melanoma) | TGI (OVCAR-3 ovarian) | TGI (NCI-H460 lung) | TGI (SW-620 colon) | TGI (T-47D breast) | TGI (SK-MEL-28 melanoma) | TGI (IGROV1 ovarian) | TGI (CAKI-1 renal) | TGI (SR leukemia) | TGI (SF-295 CNS) | TGI (MDA-MB-435) | TGI (CCRF-CEM leukemia) | TGI (NCI-H226 lung) | TGI (SNB-19 CNS) | TGI (K-562 leukemia) | TGI (HT29 colon) | TGI (UACC-257 melanoma) | TGI (HCT-116 colon) | TGI (A549 NSCLC) | TGI (U251 CNS) | TGI (NCI-H23 lung) | TGI (MOLT-4 leukemia)
7.48 µM: TGI (SNB-75 CNS)
26.3 µM: TGI (SK-MEL-5 melanoma)
37.6 µM: TGI (HOP-62 NSCLC)
54.6 µM: TGI (SK-OV-3 ovarian)
49.8 µM: TGI (RXF 393 renal)
8.17 µM: TGI (HCC-2998 colon)
15.4 µM: TGI (SN12C renal)
64.4 µM: TGI (SK-MEL-2 melanoma)

O=C(CSc1nnc(-c2ccc(Cl)cc2)n1-c1ccccc1)Nc1cccc(F)c1
6.26 µM: TGI (SN12C renal)
> 100 µM: TGI (SK-OV-3 ovarian) | TGI (HL-60(TB) leukemia) | TGI (MALME-3M melanoma) | TGI (HS 578T breast) | TGI (KM12 colon) | TGI (PC-3 prostate) | TGI (DU-145 prostate) | TGI (SK-MEL-5 melanoma) | TGI (HCT-15 colon) | TGI (EKVX NSCLC) | TGI (TK-10 renal) | TGI (COLO 205 colon) | TGI (OVCAR-4 ovarian) | TGI (SF-268 CNS) | TGI (MCF7 breast) | TGI (SK-MEL-2 melanoma) | TGI (OVCAR-5 ovarian) | TGI (M14 melanoma) | TGI (UACC-62 melanoma) | TGI (BT-549 breast) | TGI (SW-620 colon) | TGI (T-47D breast) | TGI (SK-MEL-28 melanoma) | TGI (IGROV1 ovarian) | TGI (OVCAR-8 ovarian) | TGI (CAKI-1 renal) | TGI (SR leukemia) | TGI (MDA-MB-435) | TGI (CCRF-CEM leukemia) | TGI (NCI-H226 lung) | TGI (SNB-19 CNS) | TGI (K-562 leukemia) | TGI (HOP-92 NSCLC) | TGI (HT29 colon) | TGI (UACC-257 melanoma) | TGI (HCT-116 colon) | TGI (HCC-2998 colon) | TGI (A549 NSCLC) | TGI (NCI-H23 lung) | TGI (MOLT-4 leukemia)
> 70.6 µM: TGI (SF-295 CNS)
73.9 µM: TGI (A498 renal) | TGI (OVCAR-3 ovarian)
> 36 µM: TGI (RXF 393 renal)
> 26.4 µM: TGI (HOP-62 NSCLC)
8.77 µM: TGI (NCI/ADR-RES ovarian)
> 22.4 µM: TGI (SF-539 CNS)
> 30.5 µM: TGI (SNB-75 CNS)
4.46 µM: TGI (U251 CNS)
inactive: GI50 (SK-OV-3 ovarian) 10.2 µM | GI50 (HL-60(TB) leukemia) > 100 µM | GI50 (A498 renal) 4.5 µM | GI50 (MALME-3M melanoma) 3.9 µM | GI50 (HS 578T breast) 3.3 µM | GI50 (KM12 colon) > 21 µM | GI50 (PC-3 prostate) > 100 µM | GI50 (HOP-62 NSCLC) 3.18 µM | GI50 (DU-145 prostate) > 30.3 µM | GI50 (SK-MEL-5 melanoma) > 55.4 µM | GI50 (SNB-75 CNS) 2.09 µM | GI50 (HCT-15 colon) > 100 µM | GI50 (EKVX NSCLC) > 23 µM | GI50 (TK-10 renal) 4.65 µM | GI50 (COLO 205 colon) > 100 µM | GI50 (OVCAR-4 ovarian) > 100 µM | GI50 (SF-268 CNS) > 21.4 µM | GI50 (MCF7 breast) 3.47 µM | GI50 (SN12C renal) 1.91 µM | GI50 (SK-MEL-2 melanoma) > 100 µM | GI50 (NCI/ADR-RES ovarian) 2.26 µM | GI50 (M14 melanoma) > 100 µM | GI50 (UACC-62 melanoma) > 100 µM | GI50 (SF-539 CNS) 2.33 µM | GI50 (OVCAR-3 ovarian) 4.11 µM | GI50 (NCI-H460 lung) 1.49 µM | GI50 (BT-549 breast) > 100 µM | GI50 (SW-620 colon) 5 µM | GI50 (MDA-MB-231 breast) 2.36 µM | GI50 (T-47D breast) 1.58 µM | GI50 (SK-MEL-28 melanoma) > 100 µM | GI50 (IGROV1 ovarian) 3.2 µM | GI50 (OVCAR-8 ovarian) 3.03 µM | GI50 (CAKI-1 renal) 2.89 µM | GI50 (SR leukemia) > 35.3 µM | GI50 (SF-295 CNS) 3.98 µM | GI50 (MDA-MB-435) > 100 µM | GI50 (CCRF-CEM leukemia) > 100 µM | GI50 (NCI-H226 lung) 4.11 µM | GI50 (SNB-19 CNS) 6.27 µM | GI50 (K-562 leukemia) > 100 µM | GI50 (HOP-92 NSCLC) 4 µM | GI50 (HT29 colon) > 27 µM | GI50 (UACC-257 melanoma) > 100 µM | GI50 (HCT-116 colon) 2.38 µM | GI50 (HCC-2998 colon) > 30.3 µM | GI50 (A549 NSCLC) 2.77 µM | GI50 (RXF 393 renal) 2.86 µM | GI50 (U251 CNS) 1.62 µM | GI50 (NCI-H23 lung) 5.14 µM | GI50 (MOLT-4 leukemia) > 100 µM
> 24.2 µM: TGI (MDA-MB-231 breast)
